Assay results from patent US8785470B2, “Heterocyclic compounds and uses thereof” (Infinity Pharmaceuticals, Inc., priority 2011, dated 2014).
Read-outs that look alike come from different tables or passages of the source.

Legend:
PI3Kα = biological target: T1, PI3Kα (Homo sapiens, UniProt P42336); test: PI3-Kinase HTRF assay, PI3Kα; format: biochemical; conditions: bins Greater than 10 μM and Greater than 1 μM to 10 μM; 10 μM ATP, PIP2 at 10 μM; read-out: IC50 P13Kα
T1 construct: purchased Millipore Corporation 14-602-K
T1 sequence (P42336 whole entry): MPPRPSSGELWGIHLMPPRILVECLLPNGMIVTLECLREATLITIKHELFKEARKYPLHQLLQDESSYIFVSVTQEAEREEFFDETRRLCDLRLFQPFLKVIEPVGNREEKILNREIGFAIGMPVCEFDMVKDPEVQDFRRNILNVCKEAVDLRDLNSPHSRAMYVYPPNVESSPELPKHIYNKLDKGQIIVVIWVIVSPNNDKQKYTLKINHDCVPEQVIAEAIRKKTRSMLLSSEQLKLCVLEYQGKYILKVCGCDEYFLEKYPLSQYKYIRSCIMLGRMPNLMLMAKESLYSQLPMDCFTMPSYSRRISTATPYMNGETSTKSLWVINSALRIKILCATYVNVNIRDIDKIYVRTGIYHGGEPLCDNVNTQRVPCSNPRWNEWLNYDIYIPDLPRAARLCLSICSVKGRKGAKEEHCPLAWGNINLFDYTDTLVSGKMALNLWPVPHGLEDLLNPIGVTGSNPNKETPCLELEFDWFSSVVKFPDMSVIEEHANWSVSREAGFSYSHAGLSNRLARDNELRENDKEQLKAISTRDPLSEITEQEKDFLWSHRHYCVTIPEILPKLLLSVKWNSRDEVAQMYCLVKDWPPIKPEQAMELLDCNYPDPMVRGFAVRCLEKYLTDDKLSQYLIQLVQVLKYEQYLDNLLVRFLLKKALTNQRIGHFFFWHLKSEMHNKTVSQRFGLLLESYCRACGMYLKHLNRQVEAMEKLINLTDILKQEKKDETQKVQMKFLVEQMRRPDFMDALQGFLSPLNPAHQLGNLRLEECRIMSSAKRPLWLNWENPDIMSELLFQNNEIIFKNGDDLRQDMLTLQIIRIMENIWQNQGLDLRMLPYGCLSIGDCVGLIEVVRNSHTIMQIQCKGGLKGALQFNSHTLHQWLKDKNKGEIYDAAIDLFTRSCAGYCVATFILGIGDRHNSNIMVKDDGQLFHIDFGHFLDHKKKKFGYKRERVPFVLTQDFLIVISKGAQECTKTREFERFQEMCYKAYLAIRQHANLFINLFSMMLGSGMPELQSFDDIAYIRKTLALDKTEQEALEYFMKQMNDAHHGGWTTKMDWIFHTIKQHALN
T1 sequence (P27986 whole entry partner): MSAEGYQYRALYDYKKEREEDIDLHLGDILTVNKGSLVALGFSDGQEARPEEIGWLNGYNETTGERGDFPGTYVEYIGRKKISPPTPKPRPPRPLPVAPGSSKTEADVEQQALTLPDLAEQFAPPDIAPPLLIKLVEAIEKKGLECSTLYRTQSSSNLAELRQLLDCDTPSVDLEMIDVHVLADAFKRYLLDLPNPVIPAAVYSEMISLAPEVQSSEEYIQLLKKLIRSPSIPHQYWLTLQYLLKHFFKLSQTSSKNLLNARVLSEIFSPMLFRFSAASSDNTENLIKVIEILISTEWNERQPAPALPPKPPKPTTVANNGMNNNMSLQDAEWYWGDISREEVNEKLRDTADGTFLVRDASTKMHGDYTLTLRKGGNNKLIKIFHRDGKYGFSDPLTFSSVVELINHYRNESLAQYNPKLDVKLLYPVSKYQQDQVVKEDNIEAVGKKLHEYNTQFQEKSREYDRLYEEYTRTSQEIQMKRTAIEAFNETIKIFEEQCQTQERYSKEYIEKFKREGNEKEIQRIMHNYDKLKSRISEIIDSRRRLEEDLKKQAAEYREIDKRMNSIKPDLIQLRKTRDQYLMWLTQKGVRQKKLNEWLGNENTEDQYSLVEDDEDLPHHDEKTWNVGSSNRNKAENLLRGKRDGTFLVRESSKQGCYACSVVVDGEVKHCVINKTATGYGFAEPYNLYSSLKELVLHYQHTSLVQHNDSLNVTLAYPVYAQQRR
Excerpt: A PI3-Kinase HTRF® assay kit (cat No. 33-016) purchased from Millipore Corporation was used to screen compounds provided herein. This assay used specific, high affinity binding of the GRPI pleckstrin homology (PH) domain to PIP3, the product of a Class 1A or 1B PI3 Kinase acting on its physiological substrate PIP2. During the detection phase of the assay, a complex was generated between the GST-tagged PH domain and biotinylated short chain PIP3. The biotinylated PIP3 and the GST-tagged PH domain recruited fluorophores (Streptavidin-Allophycocyanin and Europium-labeled anti-GST respectively) to form the fluorescence resonance energy transfer (FRET) architecture, generating a stable time-resolved FRET signal. The FRET complex was disrupted in a competitive manner by non-biotinylated PIP3, a product formed in the PI3 Kinase assay.
PI3 Kinase α, β, γ and δ activity was assayed using the PI3 Kinase HTRF® assay kit (catalogue No. 33-016) purchased from Millipore Corporation. Purified recombinant PI3Kα (catalogue No. 14-602-K), PI3Kβ (catalogue No. 14-603-K), PI3Kγ (catalogue No. 14-558-K) and PI3Kδ (catalogue No. 14-604-K) were obtained from Millipore Corporation. Purified recombinant PI3K enzyme was used to catalyze the phosphorylation of phosphatidylinositol 4,5-bisphosphate (PIP2 at 10 μM) to phosphatidylinositol 3,4,5-trisphosphate (PIP3) in the presence of 10 μM ATP. The assay was carried out in 384-well format and detected using a Perkin Elmer EnVision Xcite Multilabel Reader. Emission ratios were converted into percent inhibitions and imported into GraphPad Prism software. The concentration necessary to achieve inhibition of enzyme activity by 50% (IC50) was calculated using concentrations ranging from 20 μM to 0.1 nM (12-point curve). IC50 values were determined using a nonlinear regression model available in GraphPad Prism 5. […]

Balb/c splenic B cells = test: B cell activation and proliferation assay; format: cell-based; conditions: Mus musculus, read-out: B cell proliferation EC50
Description: The ability of one or more subject compounds to inhibit B cell activation and proliferation is determined according to standard procedures known in the art. For example, an in vitro cellular proliferation assay is established that measures the metabolic activity of live cells. The assay is performed in a 96 well microtiter plate using Alamar Blue reduction. Balb/c splenic B cells are purified over a Ficoll-Paque™ PLUS gradient followed by magnetic cell separation using a MACS B cell Isolation Kit (Miletenyi). Cells are plated in 90 μl at 50.000 cells/well in B Cell Media (RPMI+10% FBS+Penn/Strep+50 μME5 mM HEPES). A compound provided herein is diluted in B Cell Media and added in a 10 μl volume. Plates are incubated for 30 min at 37° C. and 5% CO2 (0.2% DMSO final concentration). A 50 μl B cell stimulation cocktail is then added containing either 10 μg/ml LPS or 5 μg/ml F(ab′)2 Donkey anti-mouse IgM plus 2 ng/ml recombinant mouse IL4 in B Cell Media. Plates are incubated for 72 hours at 37° C. and 5% CO2. A volume of 15 μL of Alamar Blue reagent is added to each well and plates are incubated for 5 hours at 37° C. and 5% CO2. Alamar Blue fluoresce is read at 560Ex/590Em, and IC50 or EC50 values are calculated using GraphPad Prism 5.

[1] = column bins 1 μM to 100 nM (given as 100-1000) and Less than 100 nM

Row | Structure (SMILES) | IC50 (PI3Kα) [nM] | EC50 (Balb/c splenic B cells; [1]) [nM] | EC50 (Balb/c splenic B cells) [nM]
1 | C[C@H](Nc1nc(N)ncc1C#N)c1cc2cccc(Cl)c2c(=O)n1-c1ccccc1 [Compound 8, (S)-2-amino-4-((1-(8-chloro-1-oxo-2-phenyl-1,2-dihydroisoquinolin-3-yl)ethyl)amino)pyrimidine-5-carbonitrile] | 1000 to 10000 | < 100 | –
2 | COc1cncc(-c2cccc3cc([C@H](C)Nc4nc(N)ncc4C#N)n(-c4ccccc4)c(=O)c23)c1 [Compound 9, (S)-2-amino-4-((1-(8-(5-methoxypyridin-3-yl)-1-oxo-2-phenyl-1,2-dihydroisoquinolin-3-yl)ethyl)amino)pyrimidine-5-carbonitrile] | – | < 100 | –
3 | COc1ncc(-c2cccc3cc([C@H](C)Nc4nc(N)ncc4C(F)(F)F)n(-c4ccccc4)c(=O)c23)cn1 [Compound 12] | – | < 100 | –
4 | Cc1cccc2cc([C@H](C)Nc3nc(N)ncc3C#N)n(-c3cccc(F)c3)c(=O)c12 [Compound 15] | 1000 to 10000 | < 100 | –
5 | C[C@H](Nc1nc(N)ncc1C#N)c1cc2cccc(Cl)c2c(=O)n1-c1cccc(F)c1 [Compound 18] | 1000 to 10000 | < 100 | –
6 | Cc1ncc(-c2cccc3cc([C@H](C)Nc4nc(N)ncc4C#N)n(-c4cccc(F)c4)c(=O)c23)cn1 [Compound 20] | 1000 to 10000 | < 100 | –
7 | COc1ncc(-c2cccc3cc([C@H](C)Nc4nc(N)ncc4C#N)n(-c4cccc(F)c4)c(=O)c23)cn1 [Compound 22] | – | < 100 | –
8 | C[C@H](Nc1nc(N)ncc1C#N)c1cc2cccc(-c3cnc4[nH]ccc4c3)c2c(=O)n1-c1cccc(F)c1 [Compound 25] | – | < 100 | –
9 | COc1ncc(-c2cccc3cc([C@H](C)Nc4nc(N)ncc4C(F)(F)F)n(-c4cccc(F)c4)c(=O)c23)cn1 [Compound 31] | – | < 100 | –
10 | C[C@H](Nc1nc(N)ncc1C#N)c1cc2cccc(-c3cccc(F)c3)c2c(=O)n1-c1ccccc1 [Compound 33] | 1000 to 10000 | – | –
11 | Cc1ccc(-c2cccc3cc([C@H](C)Nc4nc(N)ncc4C#N)n(-c4ccccc4)c(=O)c23)cn1 [Compound 41] | 1000 to 10000 | < 100 | –
12 | C[C@H](Nc1nc(N)ncc1C#N)c1cc2cccc(-c3cnc4[nH]ccc4c3)c2c(=O)n1-c1ccccc1 [Compound 47] | – | < 100 | –
13 | C[C@H](Nc1nc(N)ncc1C#N)c1cc2cccc(-c3cnc4ccccc4c3)c2c(=O)n1-c1ccccc1 [Compound 50] | – | < 100 | –
14 | Cc1ncc(-c2cccc3cc([C@H](C)Nc4nc(N)ncc4C#N)n(-c4ccccc4)c(=O)c23)cn1 [Compound 55] | 1000 to 10000 | < 100 | –
15 | C[C@H](Nc1nc(N)ncc1C#N)c1cc2cccc(-c3ccnnc3)c2c(=O)n1-c1ccccc1 [Compound 57] | 1000 to 10000 | < 100 | –
16 | C[C@H](Nc1nc(N)ncc1C#N)c1nc2cccc(Cl)c2c(=O)n1-c1ccccc1 [Compound 59, (S)-2-amino-4-((1-(5-chloro-4-oxo-3-phenyl-3,4-dihydroquinazolin-2-yl)ethyl)amino)pyrimidine-5-carbonitrile] | 1000 to 10000 | < 100 | –
17 | Cc1ncc(-c2cccc3nc([C@H](C)Nc4nc(N)ncc4C#N)n(-c4ccccc4)c(=O)c23)cn1 [Compound 63, (S)-2-amino-4-((1-(5-(2-methylpyrimidin-5-yl)-4-oxo-3-phenyl-3,4-dihydroquinazolin-2-yl)ethyl)amino)pyrimidine-5-carbonitrile] | – | < 100 | –
18 | COc1cncc(-c2cccc3nc([C@H](C)Nc4nc(N)ncc4C#N)n(-c4ccccc4)c(=O)c23)c1 [Compound 65] | 1000 to 10000 | – | –
19 | C#Cc1cccc2cc([C@H](C)Nc3nc(N)ncc3C#N)n(-c3ccccc3)c(=O)c12 [Compound 72] | 1000 to 10000 | < 100 | –
20 | Nc1nccc(Cl)n1 [Compound 79, 2-amino-4-chloro-pyrimidine] | – | < 100 | –
21 | Cc1nc(N)nc(N[C@@H](C)c2cc3cccc(Cl)c3c(=O)n2-c2ccccc2)c1C#N [Compound 89, (S)-2-amino-4-(1-(8-chloro-1-oxo-2-phenyl-1,2-dihydroisoquinolin-3-yl)ethylamino)-6-methylpyrimidine-5-carbonitrile] | – | < 100 | –
22 | Cc1cc(N[C@@H](C)c2cc3cccc(Cl)c3c(=O)n2-c2ccccc2)nc(N)n1 [Compound 92, (S)-3-(1-((2-amino-6-methylpyrimidin-4-yl)amino)ethyl)-8-chloro-2-phenylisoquinolin-1(2H)-one] | – | 100 to 1000 | –
23 | C[C@H](Nc1nc(N)ncc1C#N)c1cc2cccc(-c3cncc(N(C)C)c3)c2c(=O)n1-c1ccccc1 [Compound 96] | – | < 100 | –

Row | Structure (SMILES) | IC50 (PI3Kα) [nM] | EC50 (Balb/c splenic B cells; [1]) [nM] | EC50 (Balb/c splenic B cells) [nM]
24 | COc1cncc(-c2cccc3cc([C@H](C)Nc4nc(N)ncc4C#N)n(C4CC4)c(=O)c23)c1 [Compound 106] | – | < 100 | –
25 | COc1cc(-c2cccc3cc([C@H](C)Nc4nc(N)ncc4C#N)n(C4CC4)c(=O)c23)ccn1 [Compound 107] | – | < 100 | –
26 | COc1cc(-c2cccc3cc([C@H](C)Nc4nc(N)ncc4C(=O)N(C)C)n(-c4ccccc4)c(=O)c23)ccn1 [Compound 112] | – | < 100 | –
27 | C[C@H](Nc1ncnc(N)c1[N+](=O)[O-])c1cc2cccc(Cl)c2c(=O)n1-c1ccccc1 [Compound 129] | – | < 100 | –
28 | C[C@H](Nc1nc(N)ncc1C#N)c1cc2cccc(-c3ccnc(O)c3)c2c(=O)n1-c1ccccc1 [Compound 130] | – | < 100 | –
29 | COc1cc(-c2cccc3cc([C@H](C)Nc4nc(N)ncc4-c4cccnc4)n(-c4ccccc4)c(=O)c23)ccn1 [Compound 133] | 1000 to 10000 | – | –
30 | C[C@H](Nc1nc(N)ncc1C#N)c1cc2cccc(Oc3ccccc3)c2c(=O)n1-c1ccccc1 [Compound 151] | – | < 100 | –
31 | COc1cc(-c2cccc3cc([C@H](C)Nc4nc(N)ncc4-c4ccc(O)c(F)c4)n(-c4ccccc4)c(=O)c23)ccn1 [Compound 159] | – | < 100 | –
32 | COc1cc(-c2cccc3cc([C@H](C)Nc4nc(N)ncc4-c4cc(O)cc(F)c4)n(-c4ccccc4)c(=O)c23)ccn1 [Compound 161] | – | 100 to 1000 | –
33 | COc1cc(-c2cccc3cc([C@H](C)Nc4nc(N)ncc4-c4ccc(F)c(O)c4)n(-c4ccccc4)c(=O)c23)ccn1 [Compound 163] | – | 100 to 1000 | –
34 | C[C@H](Nc1nc(N)ncc1C#N)c1cc2cccc(C#CCCC(=O)N3CCOCC3)c2c(=O)n1-c1ccccc1 [Compound 193] | – | < 100 | –
35 | C[C@H](Nc1nc(N)ncc1C(=O)N1CCC1)c1cc2cccc(-c3cnn(C)c3)c2c(=O)n1-c1ccccc1 [Compound 204] | – | – | 1000 to 10000
36 | COc1nc(-c2cnc(N)nc2N[C@@H](C)c2cc3cccc(Cl)c3c(=O)n2-c2ccccc2)cs1 [Compound 223] | – | – | < 100
37 | C[C@H](Nc1nc(N)ncc1C#N)c1cc2cccc(Cl)c2c(=O)n1-c1ccc(F)cc1F [Compound 255] | 1000 to 10000 | – | –
38 | C[C@H](Nc1nc(N)ncc1C#N)c1cc2cccc(Cl)c2c(=O)n1-c1cc(F)ccc1F [Compound 264] | 1000 to 10000 | – | –
39 | C[C@H](Nc1nc(N)ncc1C#N)c1cc2cccc(Cl)c2c(=O)n1-c1ccccc1F [Compound 267] | 1000 to 10000 | – | –
40 | C[C@H](Nc1nc(N)ncc1C#N)c1cc2cccc(Cl)c2c(=O)n1C1CCCC1 [Compound 297] | – | < 100 | –
41 | C[C@H](Nc1nc(N)ncc1C#N)c1cc2cccc(Cl)c2c(=O)n1-c1cccnc1 [Compound 306] | – | < 100 | –
42 | Cc1ncc(-c2cnc(N)nc2N[C@@H](C)c2cc3cccc(Cl)c3c(=O)n2-c2ccccc2)s1 [Compound 372] | – | < 100 | –
43 | COc1cc(-c2cccc3cc([C@@H](C)Nc4nc(N)ncc4C#N)n(-c4ccccc4)c(=O)c23)ccn1 [Compound 380] | – | < 100 | –
44 | C[C@H](Nc1cc(N)ncc1C(N)=O)c1cc2cccc(Cl)c2c(=O)n1-c1ccccc1 [Compound 431] | – | < 100 | –
45 | COc1cc(-c2cccc3cc([C@H](C)Nc4nc(N)ncc4C(=O)N4CC(F)(F)C4)n(-c4ccccc4)c(=O)c23)ccn1 [Compound 432] | – | 100 to 1000 | –
